According to patent EP4813463A2, “TYK2 INHIBITORS AND COMPOSITIONS AND METHODS THEREOF” (Lynk Pharmaceuticals Co. Ltd., priority 2023, dated 2024):
Like-named read-outs stand apart in the source and are kept apart here.

Legend:
[1] = Microsomal metabolic stability assay; type: in vitro ADME; conditions: human, liver microsomes, pH 7.4, 0.5 mg/mL microsomal protein, 1 µM test article, 2 mM NADPH; for microsomal CLint at 1 µM: read-out: Human LM Clint; for half-life at 1 µM: read-out: Human LM T1/2
Description: Microsomes were pre-incubated with test compound or control compounds for 5 min at 37°C in 100 mM potassium phosphate buffer, pH 7.4, 1.0 mM EDTA. The reaction was initiated by addition of 15 µL of the NADPH regenerating system to 30 µL of each incubation mixture per time point. The final incubation condition was composed of 0.5 mg/mL microsomal protein, 1 µM test article/positive control, 2 mM NADPH. The 0-minute samples were prepared by addition of a 30 µL aliquot of each incubation mixture to 135 µL quench reagent to precipitate proteins. And then a 15 µL aliquot of the NADPH regenerating system was added. At 5, 15, 30 and 45 minutes, the reaction will be stopped by the addition of cold acetonitrile solution containing internal standard. The samples taken at all time points were centrifuged at 5000×g for 15 minutes. 50 µL of supernatant are taken into 96-well assay plates pre-added with 50 µL ultrapure water, and then analyzed by LC/MS/MS.
Concentrations of test articles, control compounds in the samples were determined by using LC/MS/MS method. Plotting of the chromatograms and peak area integrations are carried out by Analyst (AB Sciex).
In the determination of the in vitro elimination constant (ke) of the control compounds, the analyte/internal standard peak area ratios will be converted to percentage remaining (%Remaining) with the following equation: %Remaining = (Peak area ratio of analyte to IS at each time point)/(Peak area ratio of analyte to IS at t = 0) × 100% [formula]
The CLint of microsomes was calculated using the formula: CLint (mic)=0.693/T1/2 /mg microsome protein per mL. The slope was measured by the natural logarithm of the percentage of the residual compound and time, T1/2 was calculated according to the following formula. T = (0.693)/(−slope) [formula]

TYK2-JH2 domain = biological target: T1, TYK2-JH2 domain (Homo sapiens, UniProt P29597); assay: Binding activity test for JH2 domain of TYK2 (Tb-antibody/tracer FRET); conditions: for IC50: JH2 domain enzyme, 60 min at 25°C, then 4°C overnight, read-out: TYK2 JH2 Binding IC50; for JAK1/TYK2 selectivity: ratio of JAK1 JH2 to TYK2 JH2 binding IC50
T1 construct: JAK1-JH2 domain or TYK2-JH2 domain enzyme in assay buffer
How it was run: (§1)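 IC50 values (nM) come from TR-FRET readings taken after a 25°C incubation followed by overnight at 4°C. Each well held JH2 domain protein, Tb-antibody, tracer and test compound titrated in 11 threefold steps, with DMSO high and low controls.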

[2] = system: Ba/F3-FL-TYK2-P760L cells; assay: Anti-proliferative assay in engineered Ba/F3 cells (Cell-Titer Glo, 72 h); type: cell-based; conditions: 72 h compound treatment, concentration that causes 50% growth inhibition, read-out: Baf3-FL-T2P760L
How it was run: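 IC50 from luminescent ATP viability after 72 h compound exposure (37 °C, 5% CO2), % inhibition normalised to DMSO-treated cells minus medium blank. IL-3-free Ba/F3-FL-TYK2-P760L (Tel-JAK fusion) cells in 10% FBS RPMI-1640 received 9 three-fold doses, top 20 µM, 0.1% DMSO.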

JAK1-JH2 domain = biological target: T2, JAK1-JH2 domain (Homo sapiens, UniProt P23458); assay: Binding activity test for JH2 domain of JAK1 (Tb-antibody/tracer FRET); conditions: JH2 domain enzyme; 60 min at 25°C, then 4°C overnight; read-out: JAK1 JH2 Binding IC50
T2 construct: JAK1-JH2 domain or TYK2-JH2 domain enzyme in assay buffer
How it was run: as §1

T1 sequence (P29597 589-875 limits assumed): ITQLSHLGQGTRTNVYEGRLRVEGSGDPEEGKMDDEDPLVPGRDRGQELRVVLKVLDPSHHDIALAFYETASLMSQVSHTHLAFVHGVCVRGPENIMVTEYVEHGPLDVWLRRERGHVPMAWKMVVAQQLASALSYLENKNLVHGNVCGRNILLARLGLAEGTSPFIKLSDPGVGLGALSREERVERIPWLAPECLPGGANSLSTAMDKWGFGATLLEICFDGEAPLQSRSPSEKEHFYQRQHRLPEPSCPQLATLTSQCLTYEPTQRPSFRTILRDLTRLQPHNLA
T2 sequence (P23458 583-855 limits assumed): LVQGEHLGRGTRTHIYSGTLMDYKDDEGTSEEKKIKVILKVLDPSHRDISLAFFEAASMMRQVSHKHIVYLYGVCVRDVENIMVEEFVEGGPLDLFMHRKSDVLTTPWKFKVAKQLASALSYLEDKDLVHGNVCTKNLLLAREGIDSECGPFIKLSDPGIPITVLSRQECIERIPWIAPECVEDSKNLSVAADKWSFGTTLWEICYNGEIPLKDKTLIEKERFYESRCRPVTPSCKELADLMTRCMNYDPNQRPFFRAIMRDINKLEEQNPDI

COC(=O)c1cnc(NC(=O)C2CC2)cc1Nc1nsc2ccc(C(OC)C(F)(F)F)c(OC)c12 (stereo not shown) [Example 67, Methyl 6-(cyclopropanecarboxamido)-4-((4-methoxy-5-(2,2,2-trifluoro-1-methoxyethyl)benzo[d]isothiazol-3-yl)amino)nicotinate]
microsomal CLint at 1 µM [1]: 18.3 µL/min/mg | half-life at 1 µM [1]: 1.26 h | IC50 (TYK2-JH2 domain): 0.15 nM | IC50 ([2]; Mus musculus, BaF3, 72 h): 2.5 nM

[2H]C([2H])([2H])NC(=O)c1cnc(NC(=O)C2CC2)cc1Nc1cnn2cnc(C(C)C(F)(F)F)c(OC)c12 (stereo not shown) [Example 37, 6-(Cyclopropanecarboxamido)-4-((4-methoxy-5-(1,1,1-trifluoropropan-2-yl)pyrazolo[1,5-c]pyrimidin-3-yl)amino)-N-(methyl-d3)nicotinamide]
microsomal CLint at 1 µM [1]: 12.3 µL/min/mg | half-life at 1 µM [1]: 1.88 h | IC50 (JAK1-JH2 domain): 111 nM | IC50 (TYK2-JH2 domain): 1.65 nM | JAK1/TYK2 selectivity (TYK2-JH2 domain): 67.1 | IC50 ([2]; Mus musculus, BaF3, 72 h): 768 nM

[2H]C([2H])([2H])OC(c1ccc2c(c(Nc3cc(NC(=O)C4CC4)ncc3C(=O)OC)nn2C([2H])([2H])[2H])c1OC)C(F)F (stereo not shown) [Example 102, Methyl 6-(cyclopropanecarboxamido)-4-((5-(2,2-difluoro-1-(methoxy-d3)ethyl)-4-methoxy-1-(methyl-d3)-1H-indazol-3-yl)amino)nicotinate]
microsomal CLint at 1 µM [1]: 29.8 µL/min/mg | half-life at 1 µM [1]: 0.776 h | IC50 (JAK1-JH2 domain): 18.5 nM | IC50 (TYK2-JH2 domain): 0.19 nM | JAK1/TYK2 selectivity (TYK2-JH2 domain): 99.81 | IC50 ([2]; Mus musculus, BaF3, 72 h): 3.9 nM

[2H]C([2H])([2H])NC(=O)c1cnc(NC(=O)C2CC2)cc1Nc1cnn2cnc(OC)c(OC)c12 [Example 35, 6-(Cyclopropanecarboxamido)-4-((4,5-dimethoxypyrazolo[1,5-c]pyrimidin-3-yl)amino)-N-(methyl-d3)nicotinamide]
microsomal CLint at 1 µM [1]: 5.72 µL/min/mg | half-life at 1 µM [1]: 4.04 h | IC50 (JAK1-JH2 domain): 92.3 nM | IC50 (TYK2-JH2 domain): 8.27 nM | JAK1/TYK2 selectivity (TYK2-JH2 domain): 11.2 | IC50 ([2]; Mus musculus, BaF3, 72 h): 2340 nM

COC(=O)c1cnc(NC(=O)C2CC2)cc1Nc1nn(C)c2ccc(C(O)C(F)(F)F)c(OC)c12 (stereo not shown) [Example 48, Methyl 6-(cyclopropanecarboxamido)-4-((4-methoxy-1-methyl-5-(2,2,2-trifluoro-1-hydroxyethyl)-1H-indazol-3-yl)amino)nicotinate]
microsomal CLint at 1 µM [1]: 19.3 µL/min/mg | half-life at 1 µM [1]: 1.2 h | IC50 (JAK1-JH2 domain): 33.6 nM | IC50 (TYK2-JH2 domain): 0.166 nM | JAK1/TYK2 selectivity (TYK2-JH2 domain): 202.69 | IC50 ([2]; Mus musculus, BaF3, 72 h): 2.19 nM

[2H]C([2H])([2H])O[C@@H](c1ccc2c(c(Nc3cc(NC(=O)C4CC4)ncc3C(=O)OC)nn2C([2H])([2H])[2H])c1OC)C(F)(F)F [Example 53B, Methyl (S)-6-(cyclopropanecarboxamido)-4-((4-methoxy-1-(methyl-d3)-5-(2,2,2-trifluoro-1-(methoxy-d3)ethyl)-1H-indazol-3-yl)amino)nicotinate]
microsomal CLint at 1 µM [1]: 13.2 µL/min/mg | half-life at 1 µM [1]: 1.75 h | IC50 (TYK2-JH2 domain): 0.15 nM | IC50 ([2]; Mus musculus, BaF3, 72 h): 2.84 nM

[2H]C([2H])([2H])OC(c1ccc2c(c(Nc3cc(NC(=O)C4CC4)ncc3C(=O)OC)nn2CCOC)c1OC)C(F)(F)F (stereo not shown) [Example 157, Methyl 6-(cyclopropanecarboxamido)-4-((4-methoxy-1-(2-methoxyethyl)-5-(2,2,2-trifluoro-1-(methoxy-d3)ethyl)-1H-indazol-3-yl)amino)nicotinate]
microsomal CLint at 1 µM [1]: 25.8 µL/min/mg | half-life at 1 µM [1]: 0.897 h | IC50 (TYK2-JH2 domain): 0.15 nM | IC50 [2]: 9.21 nM

COc1c([C@H](OC)C(F)(F)F)ccn2ncc(Nc3cc(NC(=O)C4CC4)ncc3C(O)CC#N)c12 (stereo partly drawn) [Example 92, N-(5-(2-cyano-1-hydroxyethyl)-4-((4-methoxy-5-((S)-2,2,2-trifluoro-1-methoxyethyl)pyrazolo[1,5-a]pyridin-3-yl)amino)pyridin-2-yl)cyclopropanecarboxamide]
IC50 (JAK1-JH2 domain): 79.6 nM | IC50 (TYK2-JH2 domain): 26.5 nM | JAK1/TYK2 selectivity (TYK2-JH2 domain): 3.00 | IC50 ([2]; Mus musculus, BaF3, 72 h): 878 nM
